System: IL-6 production induced by lipopolysaccharide (LPS) in human corneal epithelial cells
Assay: Evaluation test for GR agonist activity: inhibition of LPS-induced IL-6 production in human corneal epithelial cells (HCE-T)
Assay type: cell-based
Settings: Corneal epithelial cell, 10 μL of 100 μM test compound solution per well, 4 hours incubation, efficacy relative to DEX
Experimental: In order to evaluate a GR agonist activity of the present compound, the inhibitory effects on the IL-6 production induced by lipopolysaccharide (LPS) in human corneal epithelial cells. IL-6 levels in the conditioned medium were measured using the HTRF human IL-6 Kit (boehringer-Ingelheim, Cat No. 62IL6PEB), and the procedure was carried out according to the protocol attached to the kit. Hereinafter, the specific method will be described.
LPS solution: After LPS was dissolved in phosphate buffer solution (hereinafter referred to as PBS(−)), the resulting solution was diluted with 10% FBS-DMEM/F12 medium, whereby a 1 μg/mL LPS solution was prepared.
After a test compound was dissolved in dimethylsulfoxide (hereinafter referred to as DMSO), the resulting solution was diluted with 10% FBS-DMEM/F12 medium, whereby a 100 μM test compound solution was prepared. A 100 μM DEX solution was prepared by the same method, and the inhibitory ratio of IL-6 production of DEX was evaluated to use for calculating efficacy (% DEX).
Used cell: SV40-immortalized human corneal epithelial cells (HCE-T) (RIKEN)
1) HCE-T cells were harvested, and seeded at 2.0×10^4 cells/0.1 mL/well in a 96-well plate.
2) After incubation overnight, the medium was removed and a 80 μL of new 10% FBS-DMEM/Ham's F12 medium was added into each well.
3) A 10 μL of test compounds solution was added into each well.
4) A 10 μL of LPS solution was added into each well.
5) As a negative control, a 10 μL of 10% FBS-DMEM/Ham's F12 medium was added into each well instead of a test compound solution and a LPS solution.
6) As a positive control, a 10 μL of 10% FBS-DMEM/Ham's F12 medium containing 1% DMSO was added into each well instead of a test compound solution.
7) After 4 hours incubation, supernatants were collected and IL-6 levels in the supernatants were quantitated using the HTRF human IL-6 Kit.
8) The inhibition ratio of IL-6 production (%) was calculated according to the following equation.
The inhibition ratio of IL-6 production (%) was calculated according to the following equation. The inhibition ratio of IL-6 production(%)=100×[1−(IL-6 level in each group−mean value of IL-6 level in negative control)/(mean value of IL-6 level in positive control−mean value of IL-6 level in negative control)](%)
Furthermore, the inhibition ratio of IL-6 production (efficacy (% DEX)) was also calculated according to the following equation. Efficacy(% DEX)=100×{(mean value of IL-6 inhibition in compound-treated group)/(mean value of IL-6 inhibition in DEX-treated group)}(%) (Result and Discussion)

Point of comparison: `CCS(=O)(=O)Oc1ccc(-c2ccc3c(c2COc2cc(F)ccc2C)C(C)=CC(C)(C)N3)c(OC)c1` [Compound 4-4, 6-(4-Ethylsulfonyloxy-2-methoxyphenyl)-5-(5-fluoro-2-methylphenoxymethyl)-2,2,4-trimethyl-1,2-dihydroquinoline], Emax 89%. Against it:
- COc1ccccc1NCc1c(-c2ccc(OC(=O)c3occc3C)cc2OC)ccc2c1C(C)=CC(C)(C)N2 [Compound 1-114, 6-[2-Methoxy-4-(3-methylfuran-2-ylcarbonyloxy)phenyl]-5-(2-methoxyphenylaminomethyl)-2,2,4-trimethyl-1,2-dihydroquinoline] — lower, 87%
- COc1cc(OC(=O)c2cccnc2)ccc1-c1ccc2c(c1COC(=O)c1ccc(C)cc1)C(C)=CC(C)(C)N2 [Compound 1-133, 5-(4-Methylbenzoyloxymethyl)-6-[2-methoxy-4-(pyridin-3-ylcarbonyloxy)phenyl]-2,2,4-trimethyl-1,2-dihydroquinoline] — lower, 74%
- COc1cc(OS(=O)(=O)CCC(F)(F)F)ccc1-c1ccc2c(c1COC(=O)c1ccc(C)s1)C(C)=CC(C)(C)N2 [Compound 4-26, 6-[2-Methoxy-4-(3,3,3-trifluoropropylsulfonyl-oxy)phenyl]-5-(5-methylthiophen-2-yl-carbonyloxymethyl)-2,2,4-trimethyl-1,2-dihydroquinoline] — lower, 77%
- COc1cc(OC(=O)c2cccnc2)ccc1-c1ccc2c(c1COC(=O)c1ccc(Br)s1)C(C)=CC(C)(C)N2 [Compound 1-160, 5-(5-Bromothiophen-2-ylcarbonyloxymethyl)-6-[2-methoxy-4-(pyridin-3-ylcarbonyloxy)phenyl]-2,2,4-trimethyl-1,2-dihydroquinoline] — lower, 88%
- COc1ccccc1NCc1c(-c2ccc(OC(=O)c3ccco3)cc2OC)ccc2c1C(C)=CC(C)(C)N2 [Compound 1-3, 6-[4-(Furan-2-ylcarbonyloxy)-2-methoxyphenyl]-5-(2-methoxyphenylaminomethyl)-2,2,4-trimethyl-1,2-dihydroquinoline] — lower, 76%
- COc1cc(OC(=O)c2ccccc2SC)ccc1-c1ccc2c(c1COc1cc(F)ccc1C)C(C)=CC(C)(C)N2 [Compound 1-38] — lower, 75%
- COc1cc(OC(=O)c2cscn2)ccc1-c1ccc2c(c1COC(=O)c1ccc(C)s1)C(C)=CC(C)(C)N2 [Compound 1-155, 6-[2-Methoxy-4-(thiazol-4-ylcarbonyloxy)phenyl]-5-(5-methylthiophen-2-ylcarbonyloxymethyl)-2,2,4-trimethyl-1,2-dihydroquinoline] — lower, 83%
- COc1cc(OC(=O)c2cccnc2C)ccc1-c1ccc2c(c1CNc1cc(F)ccc1C)C(C)=CC(C)(C)N2 [Compound 1-122, 5-(5-Fluoro-2-methylphenylaminomethyl)-6-[2-methoxy-4-(2-methylpyridin-3-ylcarbonyloxy)phenyl]-2,2,4-trimethyl-1,2-dihydroquinoline] — the same, 89%
- COc1cc(OC(=O)c2ccncc2)ccc1-c1ccc2c(c1COC(=O)c1ccc(C)s1)C(C)=CC(C)(C)N2 [Compound 1-156, 6-[2-Methoxy-4-(pyridin-4-ylcarbonyloxy)phenyl]-5-(5-methylthiophen-2-ylcarbonyloxymethyl)-2,2,4-trimethyl-1,2-dihydroquinoline] — higher, 90%
- COc1ccccc1C(=O)Oc1ccc(-c2ccc3c(c2COc2cc(F)ccc2C)C(C)=CC(C)(C)N3)c(OC)c1 [Compound 1-6, 5-(5-Fluoro-2-methylphenoxymethyl)-6-[2-methoxy-4-(2-methoxybenzoyloxy)phenyl]-2,2,4-trimethyl-1,2-dihydroquinoline] — higher, 93%
- COc1ccc(C(=O)OCc2c(-c3ccc(OC(=O)c4cccnc4)cc3OC)ccc3c2C(C)=CC(C)(C)N3)cc1 [Compound 1-157, 5-(4-Methoxybenzoyloxymethyl)-6-[2-methoxy-4-(pyridin-3-ylcarbonyloxy)phenyl]-2,2,4-trimethyl-1,2-dihydroquinoline] — lower, 76%
- COc1cc(OC(=O)c2ccccc2OC(C)=O)ccc1-c1ccc2c(c1COC(=O)c1ccc(C)s1)C(C)=CC(C)(C)N2 [Compound 1-165, 6-[4-(2-Acetoxybenzoyloxy)-2-methoxyphenyl]-5-(5-methylthiophen-2-ylcarbonyloxymethyl)-2,2,4-trimethyl-1,2-dihydroquinoline] — higher, 93%
- COC(=O)c1cccc(C(=O)Oc2ccc(-c3ccc4c(c3CNc3ccccc3OC)C(C)=CC(C)(C)N4)c(OC)c2)c1 [Compound 1-107, 6-[2-Methoxy-4-(3-methoxycarbonylbenzoyloxy)phenyl]-5-(2-methoxyphenylaminomethyl)-2,2,4-trimethyl-l,2-dihydroquinoline] — lower, 85%
- COc1cc(OS(=O)(=O)C2CC2)ccc1-c1ccc2c(c1COC(=O)c1ccc(C)s1)C(C)=CC(C)(C)N2 [Compound 4-34, 6-(4-Cyclopropylsulfonyloxy-2-methoxyphenyl)-5-(5-methylthiophen-2-ylcarbonyloxymethyl)-2,2,4-trimethyl-1,2-dihydroquinoline] — lower, 86%
- CCS(=O)(=O)Oc1ccc(-c2ccc3c(c2COC(=O)c2ccc(C)s2)C(C)=CC(C)(C)N3)c(OC)c1 [Compound 4-32, 6-(4-Ethylsulfonyloxy-2-methoxyphenyl)-5-(5-methylthiophen-2-ylcarbonyloxymethyl)-2,2,4-trimethyl-1,2-dihydroquinoline] — lower, 77%
- COc1cc(OC(=O)c2cccnc2OC)ccc1-c1ccc2c(c1CNc1cc(F)ccc1C)C(C)=CC(C)(C)N2 [Compound 1-125, 5-(5-Fluoro-2-methylphenylaminomethyl)-6-[2-methoxy-4-(2-methoxypyridin-3-ylcarbonyloxy)phenyl]-2,2,4-trimethyl-1,2-dihydroquinoline] — lower, 81%
- CCCS(=O)(=O)Oc1ccc(-c2ccc3c(c2CNc2cc(F)ccc2C)C(C)=CC(C)(C)N3)c(OC)c1 [Compound 4-21, 5-(5-Fluoro-2-methylphenylaminomethyl)-6-(2-methoxy-4-propylsulfonyloxyphenyl)-2,2,4-trimethyl-1,2-dihydroquinoline] — lower, 82%
- COc1ccccc1NCc1c(-c2ccc(OC(=O)c3ccoc3)cc2OC)ccc2c1C(C)=CC(C)(C)N2 [Compound 1-95, 6-[4-(Furan-3-ylcarbonyloxy)-2-methoxyphenyl]-5-(2-methoxyphenylaminomethyl)-2,2,4-trimethyl-1,2-dihydroquinoline] — lower, 87%
- CCN(CCN(C)C)C(=O)Oc1ccc(-c2ccc3c(c2COc2cc(F)ccc2C)C(C)=CC(C)(C)N3)c(OC)c1 [Compound 6-20, 6-[4-[N-(2-Dimethylaminoethyl)-N-ethylaminocarbonyloxy]-2-methoxyphenyl]-5-(5-fluoro-2-methylphenoxymethyl)-2,2,4-trimethyl-1,2-dihydroquinoline] — lower, 79%
- COc1cc(OC(=O)c2ccncc2)ccc1-c1ccc2c(c1CNc1cc(F)ccc1C)C(C)=CC(C)(C)N2 [Compound 1-119, 5-(5-Fluoro-2-methylphenylaminomethyl)-6-[2-methoxy-4-(pyridin-4-ylcarbonyloxy)phenyl]-2,2,4-trimethyl-1,2-dihydroquinoline] — lower, 75%
- CCCS(=O)(=O)Oc1ccc(-c2ccc3c(c2COC(=O)c2ccc(C)s2)C(C)=CC(C)(C)N3)c(OC)c1 [Compound 4-27, 6-(2-Methoxy-4-propylsulfonyloxyphenyl)-5-(5-methylthiophen-2-ylcarbonyloxymethyl)-2,2,4-trimethyl-1,2-dihydroquinoline] — higher, 101%
- COc1cc(OC(=O)Cc2ccccc2)ccc1-c1ccc2c(c1COc1cc(F)ccc1C)C(C)=CC(C)(C)N2 [Compound 1-15, 5-(5-Fluoro-2-methylphenoxymethyl)-6-(2-methoxy-4-phenylacetoxyphenyl)-2,2,4-trimethyl-1,2-dihydroquinoline] — lower, 77%
- COc1ccccc1NCc1c(-c2ccc(OC(=O)c3cccs3)cc2OC)ccc2c1C(C)=CC(C)(C)N2 [Compound 1-104, 5-(2-Methoxyphenylaminomethyl)-6-[2-methoxy-4-(thiophen-2-ylcarbonyloxy)phenyl]-2,2,4-trimethyl-1,2-dihydroquinoline] — lower, 84%
- COc1cc(OC(=O)C(C)(C)C)ccc1-c1ccc2c(c1COc1cc(F)ccc1C)C(C)=CC(C)(C)N2 [Compound 1-58, 6-(4-t-Butylcarbonyloxy-2-methoxyphenyl)-5-(5-fluoro-2-methylphenoxymethyl)-2,2,4-trimethyl-1,2-dihydroquinoline] — lower, 76%

Reference: patent US8426406B2, “Glucocorticoid receptor agonist comprising 2,2,4-trimethyl-6-phenyl-1,2-dihydroquinoline derivatives having substituted oxy group” (Santen Pharmaceutical Co., Ltd., priority 2008, dated 2013)
